Experimental data published in patent publication US20040166509A1, “Detecting hormonally active compounds” (priority 2002, published 2004).

Test system: liver cDNAs of adult male LMB
Test: LMB gene arrays of SSH-derived cDNAs: liver of fish treated with androgens
Format: in vivo, largemouth bass (LMB)
Conditions: DHT 62.5 μg/g, 11-KT 20 μg/g vs DMSO
Procedure: For each cDNA clone, the general background of each membrane was subtracted from the average value of the duplicate spots on the membrane. The values were then normalized to the average value of seven cDNA clones specific to ribosomal genes and the fold change calculated by dividing the mean of each treatment by the mean of the control. Those genes which changed by 2-fold or more were graphed. Significant differences (p<0.05) were determined by ANOVA and secondary testing was done by using […].

SMILES: C[C@]12CC(=O)[C@H]3[C@@H](CCC4=CC(=O)CC[C@@]43C)[C@@H]1CC[C@@H]2O [11-KT, 11-ketotestosterone]
- 24-1 (LOC L1) change: down
- ALPHA TUBULIN (LOC M2) change: down
- COMPLEMENT C3 (LOC L3) change: down
- CYSTATIN (LOC O3) change: down-regulated
- ER GAMMA 5′ 2F (LOC L14) change: down
- EST SEASONAL 9 (LOC D13) change: up (Those genes which changed by 2-fold or more were graphed)
- EST SEASONAL 51 (LOC K11) change: down
- EST SEASONAL 55 (LOC M4) change: down
- EST SEASONAL 62 (LOC B14) change: up (Those genes which changed by 2-fold or more were graphed)
- EST SEASONAL 64 (LOC H7) change: up (Those genes which changed by 2-fold or more were graphed)
- EST SEASONAL 72 (LOC K12) change: down
- EST SEASONAL F21 (LOC O13) change: down
- ESTP4_H07 (LOC K13) change: up (Those genes which changed by 2-fold or more were graphed)
- GP3 11C (LOC K1) change: down
- LDL RC (LOC J10) change: down
- LMB24-1 (Unknown) differentially expressed by androgens: dn-reg DHT;
- LMB151 vitellogenin receptor differentially expressed by: Dn-reg
- LMB CYSTATIN-PREC (Cystatin precursor) differentially expressed by: Dn-reg 11-KT
- LMB EST--SEASONAL_64 differentially expressed by: up-reg DHT;
- LMB EST--SEASONAL_72 differentially expressed by: Dn-reg DHT;
- LMB EST--SEASONAL_F17 differentially expressed by: Dn-reg 11-KT
- LMB EST-SEASONAL_55 differentially expressed by: Dn-reg 11-KT;
- LMB EST-SEASONALf17 differentially expressed by: down by 11KT
- LMB RIKEN 1110001M01 differentially expressed by: up by 11KT;
- LMB_ALPHA-TUBULIN (alpha tubulin) differentially expressed by: Dn-reg 11-kt;
- LMB_COMPLEMENT-C3 (Complement C3 precursor) differentially expressed by: Dn-reg DHT;
- LMB_ER-GAMMA ESTROGEN RECEPTOR GAMMA differentially expressed by (11-KT): Dn-reg 11-KT;
- LMB_EST-SEASONAL_09 differentially expressed by: up-reg DHT;
- LMB_EST-SEASONAL_11 differentially expressed by: dn-reg 11-KT
- LMB_EST-SEASONAL_51 differentially expressed by: dn 11-KT;
- LMB_ESTDHT64 differentially expressed by: up by 11KT
- LMB_ESTDHT_62 differentially expressed by: up-reg DHT;
- LMB_LDL RC (LDL receptor) differentially expressed by: Dn-reg DHT;
- LMB_RXR INTERACT PROT (Retinoid X receptor interacting protein) differentially expressed by: Dn-reg 11-KT;
- LMB_SOL-CAR-25A#5 (solute carrier family 25 alpha member 5) differentially expressed by: up-reg DHT;
- LMB_SSAT (SSAT) differentially expressed by: up-reg DHT;
- LMB_WARM-WATER ACC PROTEIN (Warm water acclimation-related protein) differentially expressed by: up-reg 11-KT
- LMB_ZPC1 (ZPC1) differentially expressed by: up-reg DHT;
- LMB_ZPC4 (ZPC4) differentially expressed by: up-reg DHT;
- PTTP (LOC O10) change: up-
- RETINOL DEHYDROGENASE (LOC M11) change: up (Those genes which changed by 2-fold or more were graphed)
- RIKEN 1110001M01 (LOC O11) change: up (Those genes which changed by 2-fold or more were graphed)
- RXR INTERACTING PROT (LOC L11) change: down
- SOLUTE CARRIER (LOC B13) change: up (Those genes which changed by 2-fold or more were graphed)
- SSAT (LOC C13) change: up (Those genes which changed by 2-fold or more were graphed)
- TFIID (change to liver regeration related protein) (LOC M12) change: down
- VTG PRECURSOR (LOC D14) change: up (Those genes which changed by 2-fold or more were graphed)
- VTG RC (LOC M14) change: down
- ZPC1 (LOC H14) change: up (Those genes which changed by 2-fold or more were graphed)
- ZPC4 (LOC I14) change: up (Those genes which changed by 2-fold or more were graphed)
- warm water acclim (LOC E14) change: up (Those genes which changed by 2-fold or more were graphed)

SMILES: C[C@]12CCC(=O)C[C@@H]1CC[C@@H]1[C@@H]2CC[C@]2(C)[C@@H](O)CC[C@@H]12 [DHT, dihydrotestosterone]
- 24-1 (LOC L1) change: down
- 53-1 (LOC B2) change: down
- 68-1 (LOC C2) change: down
- 97-8 (LOC F2) change: up (Those genes which changed by 2-fold or more were graphed)
- ALDOLASE B (LOC K2) change: down
- ALPHA 1 ANTI-TRYPSIN (LOC L2) change: down
- ALPHA TUBULIN (LOC M2) change: down
- APOL[…] (LOC C3) change: down
- ATP SYNTHASE (LOC K7) change: up (Those genes which changed by 2-fold or more were graphed)
- ATPASE 6 (LOC E3) change: up (Those genes which changed by 2-fold or more were graphed)
- ATPASE SUBUNIT 6 (LOC F9) change: up (Those genes which changed by 2-fold or more were graphed)
- COMPLEMENT C3 (LOC L3) change: down
- CYSTATIN (LOC O3) change: down
- ER GAMMA 5′ 2F (LOC L14) change: down
- EST DHT64 (LOC D4) change: up (Those genes which changed by 2-fold or more were graphed)
- EST P4_06 (LOC L8) change: up (Those genes which changed by 2-fold or more were graphed)
- EST P4_D08 (LOC N8) change: up (Those genes which changed by 2-fold or more were graphed)
- EST SEASONAL 9 (LOC D13) change: up (Those genes which changed by 2-fold or more were graphed)
- EST SEASONAL 11 (LOC O6) change: down
- EST SEASONAL 12 (LOC B8) change: up (Those genes which changed by 2-fold or more were graphed)
- EST SEASONAL 42 (LOC H10) change: down
- EST SEASONAL 51 (LOC K11) change: down
- EST SEASONAL 55 (LOC M4) change: down
- EST SEASONAL 56 (LOC F12) change: up (Those genes which changed by 2-fold or more were graphed)
- EST SEASONAL 62 (LOC B14) change: up (Those genes which changed by 2-fold or more were graphed)
- EST SEASONAL 64 (LOC H7) change: up (Those genes which changed by 2-fold or more were graphed)
- EST SEASONAL 72 (LOC K12) change: down
- EST SEASONAL 88 (LOC E12) change: up (Those genes which changed by 2-fold or more were graphed)
- EST SEASONAL 90 (LOC L9) change: down
- EST SEASONAL F17 (LOC B9) change: down
- EST SEASONAL F21 (LOC O13) change: down
- ESTDHT60 (LOC F5) change: down
- ESTP4_C04 (LOC G9) change: down
- ESTP4_E01 (LOC K5) change: down
- ESTP4_E06 (LOC D6) change: down
- ESTP4_H07 (LOC K13) change: up (Those genes which changed by 2-fold or more were graphed)
- GP3 11C (LOC K1) change: down
- G[…] (LOC G5) change: down-regulated and down
- HAPTOGLOBIN (LOC I5) change: down
- HEPCIDIN (LOC J5) change: down
- IGF-I (LOC M5) change: down
- LDL RC (LOC J10) change: down
- LMB24-1 (Unknown) differentially expressed by androgens: dn-reg DHT;
- LMB53-1 (unknown) differentially expressed by androgens: Down-reg. E2;
- LMB68-1 (hypothetical protein) differentially expressed by: Dn-reg DHT
- LMB97 choriogenin-3 differentially expressed by androgens: Up-reg E2;
- LMB112-1 cathepsin (Aspartic protease) differentially expressed by androgens: up-reg E; NP:
- LMB151 vitellogenin receptor differentially expressed by: Dn-reg
- LMB CIS-RETIN DEHYDRO (cis-retinol dehydrogenase) differentially expressed by: up-reg DHT
- LMB EST--SEASONAL_64 differentially expressed by: up-reg DHT;
- LMB EST--SEASONAL_72 differentially expressed by: Dn-reg DHT;
- LMB EST--SEASONAL_88 differentially expressed by: up-reg DHT;
- LMB EST--SEASONAL_90 differentially expressed by: dn-reg DHT
- LMB EST--SEASONAL_F21 differentially expressed by: Dn-reg DHT
- LMB EST-SEASONAL_55 differentially expressed by: Dn-reg 11-KT;
- LMB EST-SEASONAL_56 differentially expressed by: up-reg DHT;
- LMB GLUT-PEROX III (Glutathione peroxidase III) differentially expressed by: Dn-reg DHT
- LMB LIV-REGER-PROT differentially expressed by: down by DHT
- LMB RIKEN 1110001M01 differentially expressed by: up by 11KT;
- LMB_ALPHA-TUBULIN (alpha tubulin) differentially expressed by: Dn-reg 11-kt;
- LMB_ATPASE 6 (ATPase subunit 6) differentially expressed by: up-reg DHT
- LMB_COMPLEMENT-C3 (Complement C3 precursor) differentially expressed by: Dn-reg DHT;
- LMB_EST-SEASONAL_09 differentially expressed by: up-reg DHT;
- LMB_EST-SEASONAL_12 differentially expressed by: up-reg DHT
- LMB_EST-SEASONAL_51 differentially expressed by: dn 11-KT;
- LMB_ESTDHT_62 differentially expressed by: up-reg DHT;
- LMB_ESTP4-E01 differentially expressed by: down by DHT
- LMB_HAPTOGLOBIN (Haptoglobin) differentially expressed by: Dn-reg DHT
- LMB_HEPCIDIN (Hepcidin precursor) differentially expressed by: dn-reg DHT
- LMB_LDL RC (LDL receptor) differentially expressed by: Dn-reg DHT;
- LMB_LECTIN STL2 (Rhamnose binding lectin STL2) differentially expressed by: up-reg DHT
- LMB_MITOCHON-ATP-SYNTHASE (ATP synthase alpha chain mitochondrial precursor) differentially expressed by: up-reg DHT
- LMB_RXR INTERACT PROT (Retinoid X receptor interacting protein) differentially expressed by: Dn-reg 11-KT;
- LMB_SOL-CAR-25A#5 (solute carrier family 25 alpha member 5) differentially expressed by: up-reg DHT;
- LMB_SSAT (SSAT) differentially expressed by: up-reg DHT;
- LMB_ZPC1 (ZPC1) differentially expressed by: up-reg DHT;
- LMB_ZPC4 (ZPC4) differentially expressed by: up-reg DHT;
- PTTP (LOC O10) change: up (Those genes which changed by 2-fold or more were graphed)
- RETINOL DEHYDROGENASE (LOC M11) change: up (Those genes which changed by 2-fold or more were graphed)
- RHAMNOSE BINDING LECTIN (LOC G13) change: up (Those genes which changed by 2-fold or more were graphed)
- RIKEN 1110001M01 (LOC O11) change: up (Those genes which changed by 2-fold or more were graphed)
- RIKEN 2700038C09 (LOC D12) change: down
- RXR I[…] (LOC L11) change: down
- SOLUTE CARRIER (LOC B13) change: up (Those genes which changed by 2-fold or more were graphed)
- SSAT (LOC C13) change: up (Those genes which changed by 2-fold or more were graphed)
- TFIID (change to liver regeration related protein) (LOC M12) change: down
- TFIIIA (LOC J13) change: up (Those genes which changed by 2-fold or more were graphed)
- UNNAMED PROTEIN (LOC C14) change: up (Those genes which changed by 2-fold or more were graphed)
- VTG PRECURSOR (LOC D14) change: up (Those genes which changed by 2-fold or more were graphed)
- VTG RC (LOC M14) change: down
- ZPC1 (LOC H14) change: up (Those genes which changed by 2-fold or more were graphed)
- ZPC4 (LOC I14) change: up (Those genes which changed by 2-fold or more were graphed)
- warm water acclim (LOC E14) change: up (Those genes which changed by 2-fold or more were graphed)
